From patent US11331294B2, “Benzoquinone derivative E3330 in combination with chemotherapeutic agents for the treatment of bladder cancer” (Indiana University Research and Technology Corporation, priority 2007, dated 2022)

Legend:
[1] = test system: NFκB; experiment: NFκB-driven luciferase reporter; assay type: cell-based, human; conditions: T24 and UC3 cells induced with TNFa, IC50 concentration, 24 h
Description: FIGS. 36A-36H. […] In cytokine-induced T24 and UC3 cells NFκB-driven luciferase (FIG. 36A), STAT3-driven luciferase (FIG. 36B), and AP-1-driven luciferase (FIG. 36C) were quantified and normalized via Renilla following treatment with the corresponding cell growth-inhibitory IC50 concentrations. T24 cells were treated with APX2009 (8.5 μM) and APX2014 (6.5 μM), and UC3 cells were treated with APX2009 (6.1 μM) and APX2014 (4.6 μM) for 24 h. (*-p<0.05 APX treated vs vehicle, n=4). […] In the panels of FIGS. 36F & 36G, co-expression of survivin and APE1/Ref-1 was analyzed in superficial (FIG. 36F) and invasive human bladder tumors (FIG. 36G) in patients, and found nearly universal overlap of positivity in both in human samples. This was also true in cisplatin-refractory patients from the tissue microarray specimens (FIG. 36H).
The transcriptional activity of NFκB, STAT3, and AP-1 is under redox control by APE1/Ref-1. Therefore, NFκB, STAT3, or AP-1 transcriptional activity was quantified following treatment with APE1/Ref-1 redox inhibitors (FIGS. 36A-36C).

[2] = test system: T24 human bladder cancer cells; experiment: T24 subcutaneous flank xenograft; assay type: in vivo, athymic nude mice; conditions: for tumor weight at sacrifice: ip every 12 hours, vehicle 1.0±0.2 g; for tumor growth compared to vehicle control / reduction in survivin expression in harvested tumors: ip twice daily
Description: […] T24 human bladder cancer cells were grown in conditions described above and harvested with 0.05% Trypsin, centrifuged, and resuspended in a 50:50 solution of Matrigel: RPMI medium. For each subcutaneous tumor, a 100 μl volume of this suspension was implanted in the hind flank of […]. […] BrdU was injected into the animals 2 hours prior to sacrifice and tumor tissues were harvested and split into either snap frozen tissues for protein harvest and molecular analysis or fixed in formalin and processed for histological analysis, and then analyzed for survivin, Cyclin D1 levels (immunofluorescence and immunoblotting) for target protein assessment and BrdU incorporation (immunofluorescence).
Prior to sacrifice, mice were injected with BrdU and BrdU incorporation was visualized and quantitated via red fluorescence.

[3] = test system: bladder cancer cells; experiment: BrdU incorporation assay in cultured cells; assay type: cell-based; conditions: IC50 concentration, 24 hours; control 11.2%±0.84
Description: To determine the proliferation rate of cells in response to APE1/Ref-1 redox inhibitors, cells were grown in the culture conditions described above and treated with inhibitors as described above, in chamber slides. After 24 hours in culture with inhibitors or vehicle, all cells were treated with 3.1 μg/ml BrdU (in sterile PBS; 0.1%) for one hour. Cells were fixed and permeablized with 4% paraformaldehyde and stained for BrdU incorporation with the antibody and methodology described in the Roche BrdU labeling Kit, (Risch-Rotkreuz, Switzerland), using secondary antibodies. Positive cells were captured on a Leica 6000 fluorescent microscope and were quantified relative to Hoechst positive nuclei (total live cells).
To further characterize this effect, it was analyzed whether this reduced cell number was due to decreases in proliferation, increases in apoptosis, or both.

[4] = test system: OVCAR-3 tumor cells; experiment: MTS cell survival assay OVCAR-3; assay type: cell-based, human; conditions: about 24 or 72 h
Description: Decreased cancer cell survival. MCF-7 or OVCAR-3 cells (about 2-4,000) were aliquoted into each well of a 96-well plate in triplicate and allowed to adhere overnight. APX3330 (RN3-3) was added to the cultures. After about 24 or 72 h, about 0.05 mg/mL 3-(4-5-Dimethylthiazol-2-yl)-5-(3-carboxymethoxyphenyl)-2-(4-sulfophenyl)-2H-tetrazolium salt (MTS) reagent was added to each well and incubated at about 37° C. for about 4 h followed by absorbance measurement at 490 nm. The values were standardized to wells containing media alone. […] Similar effects can be seen in multiple myeloma, prostate, non-small cell lung carcinoma, colon, and glioma derived cells.

[5] = test system: rat dorsal root ganglion cells; experiment: MTS cell viability assay of dorsal root ganglion cells; assay type: cell-based
Description: APX3330 in combination with chemotherapeutic Cisplatin. […] There was no effect of APX3330 (RN3-3) on the post-mitotic DRG cells, indicative of a non-toxic effect of APX3330 (RN3-3) on non-dividing cells.
DRG cell cultures and treatments were performed similar to previously published procedures using just APX3330 alone (DNA Repair Volume 4, Issue 3, 2 Mar. 2005, pp […]).

[6] = test system: SF767 glioma cells; experiment: Glioma cell migration (scratch) assay; assay type: cell-based; conditions: 100 μM, 48 h
Description: Glioma Cell Migration Assay. APX3330 was tested to determine if it would inhibit the migration ability of SF767 glioma cells. In order to do this, we plated 1.5×10^6 SF767 cells in a 60 mm tissue culture dish and allowed them to attach overnight and form a confluent monolayer. A scratch or wound was made across the plate using a 200 μL pipette tip as described previously (Liang 2007). The cells were then rinsed to remove floating cells and media contain 25, 50, 75 or 100 μM APX3330 or the appropriate vehicle control, DMSO. The drug-containing media was removed after 24 h and fresh media was added Images were taken at three marked places along the scratch at 0, 24, 36 and 48 h after the drug was added. Migration was quantified in ten uniform places for each image taken using Spot Software (Diagnostic Instruments, Sterling Heights, Mich.) to measure the distance in microns between the leading edges of the scratch. Each set of data, a total of thirty for each data point, was normalized to the migration of the vehicle control at 0 h and used to determine standard deviation.

[7] = APX3330 50 mg/kg, APX2009 25 mg/kg
[8] = APX3330 50 mg/kg, APX2009 25 mg/kg, immunoblot

SMILES: CCC/C(=C\C1=C(OC)C(=O)c2ccccc2C1=O)C(=O)N(CC)CC [APX2009, [(2E)-2-[(3-methoxy-1,4-dioxo-1,4-dihydronaphthalen-2-yl)methylidene]-N,N-diethylpentanamide]]
- reduction of NFκB-driven luciferase activity [1]: 2 fold
- decrease in BrdU+ cells in tumors ([2]; APX2009 25 mg/kg ip twice daily): 60%
- tumor weight at sacrifice [2, 7]: 0.37 ± 0.14 g
- tumor growth compared to vehicle control [2, 7]: significantly reduced tumor growth
- reduction in survivin expression in harvested tumors [2, 8]: 64%
- ratio of cleaved caspase 3 to total caspase 3 in harvested tumors [2, 8]: increase in the ratio of cleaved caspase 3
- BrdU-positive cells [3]: 6.9%±0.58

SMILES: CCCCCCCCC/C(=C\C1=C(C)C(=O)C(OC)=C(OC)C1=O)C(=O)O [APX3330]
- tumor weight at sacrifice [2, 7]: 0.43 ± 0.10 g
- tumor growth compared to vehicle control [2, 7]: significantly reduced tumor growth
- reduction in survivin expression in harvested tumors [2, 8]: 42%
- killing of OVCAR-3 tumor cells [4]: dose dependently killed
- BrdU-positive cells [3]: 7.8%±0.64
- survival of dorsal root ganglion cells ([5]; as high as about 120 μM, up to about 72 hours): did not impair the survival
- protection against cisplatin neurotoxicity ([5]; with cisplatin): provided protection against the neuro-toxic effects of the chemotherapeutic cisplatin
- inhibition of migration compared to vehicle control [6]: 4.0 fold
